Data published in US5462869A, “Human endothelin converting enzyme isolated from blood or placenta by hydrated density” (Nisshin Flour Milling Co., Ltd., priority 1991, dated 1995).
Blank lines part the entries; values can stand above or below the molecule they belong to. Square brackets hold non-standard residues; d marks the D form. Peptide text beside a SMILES is read from it. * marks the point of attachment. Sta = CC(C)C[C@H](N)[C@@H](O)CC(=O)O; Isovaleryl = CC(C)CC(=O)*

What was measured:
Format in all cases: biochemical, human
Details in all cases: 37° C. 30 minutes, pH 7.0, untreated enzyme as 100
[1] = test system: endothelin converting enzyme III; assay: Effect of inhibitors on activity of converting big endothelin-1 to endothelin-1, enzyme III
Experimental: (§1) 10 μl of a 100 nmol/ml big endothelin-1 solution is added to 1 ml of an enzyme solution (10 mM trishydrochloric acid-0.15M sodium chloride buffer; pH 7.0), and the enzymatic reaction is carried out at 37° C. for 3 hours. After completion of the reaction, 10 μl of a 0.1M EDTA solution is added thereto to discontinue the reaction. Thereafter, the resultant endothelin-1 is assayed according to the sandwich-EIA method. An enzymatic activity of converting 1 pmol of big endothelin-1 to endothelin-1 per hour under the above-described reaction conditions is termed 1 U (unit).
(§2) A sample and a predetermined concentration of endothelin standard solution are respectively applied to a 96-hole microplate on which ani-endothelin monoclonal antibody is immobilized to thereby cause the […]. […] Then, biotin-labeled anti-endothelin polyclonal antibody and peroxydase-labeled avidin are applied thereto for reaction. After washing the microplate, activity of bound peroxydase is assayed. Endothelin concentration in the sample is assayed based on the calibration curve drawn by using endothelin standard solutions having predetermined concentrations of endothelin.
(§3) The enzymes of the invention were tested for the effects of various inhibitors against the activity of converting big endothelin-1 to endothelin-1.
(§4) Each of the enzymes is incubated in 100 μl of a reaction solution (10 mM tris-hydrochloric acid-0.15M sodium chloride buffer; pH 7.0) containing various inhibitors at 37° C. for 30 minutes, and the residual enzymatic activity is measured in the above-described manner.

[2] = test system: endothelin converting enzyme II; assay: Effect of inhibitors on activity of converting big endothelin-1 to endothelin-1, enzyme II
Experimental: as §1, §2, §3, §4

[3] = test system: endothelin converting enzyme IV; assay: Effect of inhibitors on activity of converting big endothelin-1 to endothelin-1, enzyme IV
Experimental: as §1, §2, §3, §4

[4] = test system: endothelin converting enzyme I; assay: Effect of inhibitors on activity of converting big endothelin-1 to endothelin-1, enzyme I
Experimental: as §1, §2, §3, §4

- Relative Activity (%) ([1]; inhibitor 0.01 mM): 99%
- Relative Activity (%) ([2]; inhibitor 0.01 mM): 100%
- Relative Activity (%) ([3]; inhibitor 0.01 mM): 97%
- Relative Activity (%) ([4]; inhibitor 0.01 mM): 99%
Structure (SMILES): CC(C)CC(=O)N[C@H](C(=O)N[C@H](C(=O)N[C@@H](CC(C)C)[C@@H](O)CC(=O)N[C@@H](C)C(=O)N[C@@H](CC(C)C)[C@@H](O)CC(=O)O)C(C)C)C(C)C [Pepstatin A] (Isovaleryl-VV[Sta]A[Sta]-OH)

- Relative Activity (%) ([1]; inhibitor 0.1 mM): 1%
- Relative Activity (%) ([2]; inhibitor 0.1 mM): 2%
- Relative Activity (%) ([3]; inhibitor 0.1 mM): 3%
- Relative Activity (%) ([4]; inhibitor 0.1 mM): 1%
Structure (SMILES): CC(C)C[C@H](NP(=O)(O)O[C@@H]1O[C@@H](C)[C@H](O)[C@@H](O)[C@H]1O)C(=O)N[C@@H](Cc1c[nH]c2ccccc12)C(=O)O [Phosphoramidon]

- Relative Activity (%) ([1]; inhibitor 0.5 mM): 7%
- Relative Activity (%) ([2]; inhibitor 0.5 mM): 5%
- Relative Activity (%) ([3]; inhibitor 0.5 mM): 8%
- Relative Activity (%) ([4]; inhibitor 0.5 mM): 10%
Structure (SMILES): c1cnc2c(c1)ccc1cccnc12 [1,10-Phenanthroline]
